How the values were obtained:
Format in all cases: biochemical
Plk1 = Plk1 (Homo sapiens, UniProt P53350); assay: AlphaScreen kinase assay, Plk1; details: read-out: IC50, activity toward kinase Plk1
From the text: (§1) AlphaScreen assay was used to screen additional kinases. The assay is similarly dependent on the phosphorylation of a peptide substrate. In this assay, an antibody that recognizes phosphorylated substrate is bound to an acceptor bead. The peptide substrate is attached to biotin, which binds to a donor head that contains streptavidin. Thus phosphorylated substrate is bound by antibody and streptavidin, bringing the donor and acceptor heads into close proximity when kinase is not inhibited. The donor produces singlet oxygen which results in emission from the acceptor when they are in close proximity. Conversely, when kinase is inhibited, the donor and acceptor beads are not associated and the emission from the acceptor is reduced.
(§2) AlphaScreen assays were done using compounds dissolved in DMSO to a concentration of 20 mM. The compounds were diluted accordingly to the desired final concentrations in each sample well, using 1:3 serial dilution for a total of 8 concentration points.

IKK beta = target: T1, IKK beta (Homo sapiens, UniProt O14920); assay: AlphaScreen kinase assay, IKK beta; details: read-out: IC50, activity toward kinase IKK beta
T1 sequence (O14920 1-756): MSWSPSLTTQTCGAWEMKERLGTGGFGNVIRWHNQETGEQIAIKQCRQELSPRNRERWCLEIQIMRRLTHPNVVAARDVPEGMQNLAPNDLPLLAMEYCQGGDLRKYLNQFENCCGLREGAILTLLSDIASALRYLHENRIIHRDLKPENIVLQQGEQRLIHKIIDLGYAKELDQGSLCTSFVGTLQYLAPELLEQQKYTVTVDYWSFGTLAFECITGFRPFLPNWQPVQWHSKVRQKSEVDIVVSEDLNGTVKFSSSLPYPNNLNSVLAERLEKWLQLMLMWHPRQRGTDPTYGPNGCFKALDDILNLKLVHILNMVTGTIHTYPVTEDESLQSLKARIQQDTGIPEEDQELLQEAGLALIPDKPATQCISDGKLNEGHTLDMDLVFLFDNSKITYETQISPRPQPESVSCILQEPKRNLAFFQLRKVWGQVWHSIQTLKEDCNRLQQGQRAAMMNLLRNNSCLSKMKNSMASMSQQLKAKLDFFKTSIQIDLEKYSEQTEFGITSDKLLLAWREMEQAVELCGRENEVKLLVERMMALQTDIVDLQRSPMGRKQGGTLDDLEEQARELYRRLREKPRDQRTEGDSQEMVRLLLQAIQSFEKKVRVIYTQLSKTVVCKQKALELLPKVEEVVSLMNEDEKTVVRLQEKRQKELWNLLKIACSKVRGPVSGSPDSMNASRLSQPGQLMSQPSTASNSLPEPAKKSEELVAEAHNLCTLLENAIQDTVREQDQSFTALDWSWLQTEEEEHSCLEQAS
Protocol: AlphaScreen assays were done using compounds dissolved in DMSO to a concentration of 20 mM. The compounds were diluted accordingly to the desired final concentrations in each sample well, using 1:3 serial dilution for a total of 8 concentration points. Plates were prepared such that each kinase reaction is 20 μl in 1× kinase buffer, 5% DMSO and 10 μM ATP. After incubation of the kinase reaction for 1 hour at room temperature, 5 μl of donor beads in stop buffer (50 mM EDTA in 1× kinase buffer) was added, the sample was mixed and incubated for 20 minutes at room temperature before adding 5 μl of acceptor beads in stop buffer. The samples were incubated for 60 minutes at room temperature and the signal per well was read on AlphaQuest reader.

Btk = target: T2, Btk (Homo sapiens, UniProt Q06187); assay: Z'-Lyte FRET kinase assay (Invitrogen), Btk; details: read-out: IC50, activity toward kinase Btk
T2 construct: purchased Invitrogen (assay run by Invitrogen)

Ret = target: T3, Ret (Homo sapiens, UniProt P07949); assay: AlphaScreen kinase assay, Ret; details: read-out: IC50, activity toward kinase Ret
T3 construct: P1378.pET-SF BI-PTP RET H661-R1012 HIS; made in house
T3 sequence (P07949 with tags, fused parts or gaps): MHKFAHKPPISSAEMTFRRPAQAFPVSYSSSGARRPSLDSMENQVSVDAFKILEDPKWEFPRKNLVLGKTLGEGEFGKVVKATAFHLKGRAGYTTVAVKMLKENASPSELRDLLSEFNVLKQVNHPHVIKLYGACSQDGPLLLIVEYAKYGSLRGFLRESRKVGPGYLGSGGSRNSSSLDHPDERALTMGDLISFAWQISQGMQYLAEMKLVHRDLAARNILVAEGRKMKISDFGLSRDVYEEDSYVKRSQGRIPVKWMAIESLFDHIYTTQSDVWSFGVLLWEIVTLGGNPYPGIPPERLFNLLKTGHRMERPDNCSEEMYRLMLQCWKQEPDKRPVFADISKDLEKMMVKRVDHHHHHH

B-Raf V600E = target: T4, B-Raf V600E (Homo sapiens, UniProt P15056, V600E); assay: AlphaScreen kinase assay, B-Raf V600E; details: read-out: IC50, activity toward kinase B-Raf V600E
T4 construct: P4254. pFastBacBD-CDC37 BRAF D437-K722-X, V600E; His6 with pFastBac HT leader (TEV site) (N); made in house; host or cells: Sf9 (baculovirus; chaperone CDC37 co-expressed)

Gsk3β = Gsk3β (Homo sapiens, UniProt P49841); assay: AlphaScreen kinase assay, Gsk3β; details: read-out: IC50, activity toward kinase Gsk3β
Outline: (§3)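 Biotinylated peptide substrate is phosphorylated by kinase; anti-phosphopeptide antibody on acceptor beads and streptavidin donor beads bring emission when substrate is phosphorylated. Inhibition lowers acceptor signal. Compounds from 20 mM DMSO stock tested as 8-point 1:3 serial dilutions.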

Kdr = target: T5, Kdr (Homo sapiens, UniProt P35968); assay: Z'-Lyte FRET kinase assay (Invitrogen), Kdr; details: read-out: IC50, activity toward kinase Kdr
T5 construct: purchased Invitrogen (assay run by Invitrogen)

Stk6 = target: T6, Stk6 (Homo sapiens, UniProt O14965); assay: Z'-Lyte FRET kinase assay (Invitrogen), Stk6; details: read-out: IC50, activity toward kinase Stk6
T6 construct: purchased Invitrogen (Carlsbad, Calif.), screening service
T6 sequence (O14965 1-403): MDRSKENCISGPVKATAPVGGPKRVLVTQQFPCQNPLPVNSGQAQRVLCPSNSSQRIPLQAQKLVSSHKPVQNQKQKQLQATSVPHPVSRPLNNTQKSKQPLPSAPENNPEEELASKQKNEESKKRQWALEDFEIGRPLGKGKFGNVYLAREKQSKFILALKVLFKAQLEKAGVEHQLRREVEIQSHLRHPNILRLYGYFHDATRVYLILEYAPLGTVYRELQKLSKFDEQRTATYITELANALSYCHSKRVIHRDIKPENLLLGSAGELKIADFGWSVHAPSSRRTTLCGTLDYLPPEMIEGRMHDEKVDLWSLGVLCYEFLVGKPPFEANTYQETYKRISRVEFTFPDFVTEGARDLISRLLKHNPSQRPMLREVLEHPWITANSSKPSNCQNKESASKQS

Kit = target: T7, Kit (Homo sapiens, UniProt P10721); assay: AlphaScreen kinase assay, Kit; details: read-out: IC50, activity toward kinase Kit
T7 construct: P1332.N6 BI PTP KIT M552-K948-X COD; His6 (N); made in house; host or cells: E. coli (PTP1B co-expressed)

IGF1R = IGF1R (Homo sapiens, UniProt P08069); assay: AlphaScreen kinase assay, IGF1R; details: read-out: IC50, activity toward kinase IGF1R
Met = target: T8, Met (Homo sapiens, UniProt P08581); assay: AlphaScreen kinase assay, Met; details: read-out: IC50, activity toward kinase Met
T8 construct: P1818.pETN6 BI-PTP MET G1056-G1364-X WT; His6 (N); made in house; host or cells: E. coli (PTP1B co-expressed)
Outline: as §3

Jak3 = target: T9, Jak3 (Homo sapiens, UniProt P52333); assay: AlphaScreen kinase assay, Jak3; details: read-out: IC50, activity toward kinase Jak3
T9 sequence (P52333 1-1124): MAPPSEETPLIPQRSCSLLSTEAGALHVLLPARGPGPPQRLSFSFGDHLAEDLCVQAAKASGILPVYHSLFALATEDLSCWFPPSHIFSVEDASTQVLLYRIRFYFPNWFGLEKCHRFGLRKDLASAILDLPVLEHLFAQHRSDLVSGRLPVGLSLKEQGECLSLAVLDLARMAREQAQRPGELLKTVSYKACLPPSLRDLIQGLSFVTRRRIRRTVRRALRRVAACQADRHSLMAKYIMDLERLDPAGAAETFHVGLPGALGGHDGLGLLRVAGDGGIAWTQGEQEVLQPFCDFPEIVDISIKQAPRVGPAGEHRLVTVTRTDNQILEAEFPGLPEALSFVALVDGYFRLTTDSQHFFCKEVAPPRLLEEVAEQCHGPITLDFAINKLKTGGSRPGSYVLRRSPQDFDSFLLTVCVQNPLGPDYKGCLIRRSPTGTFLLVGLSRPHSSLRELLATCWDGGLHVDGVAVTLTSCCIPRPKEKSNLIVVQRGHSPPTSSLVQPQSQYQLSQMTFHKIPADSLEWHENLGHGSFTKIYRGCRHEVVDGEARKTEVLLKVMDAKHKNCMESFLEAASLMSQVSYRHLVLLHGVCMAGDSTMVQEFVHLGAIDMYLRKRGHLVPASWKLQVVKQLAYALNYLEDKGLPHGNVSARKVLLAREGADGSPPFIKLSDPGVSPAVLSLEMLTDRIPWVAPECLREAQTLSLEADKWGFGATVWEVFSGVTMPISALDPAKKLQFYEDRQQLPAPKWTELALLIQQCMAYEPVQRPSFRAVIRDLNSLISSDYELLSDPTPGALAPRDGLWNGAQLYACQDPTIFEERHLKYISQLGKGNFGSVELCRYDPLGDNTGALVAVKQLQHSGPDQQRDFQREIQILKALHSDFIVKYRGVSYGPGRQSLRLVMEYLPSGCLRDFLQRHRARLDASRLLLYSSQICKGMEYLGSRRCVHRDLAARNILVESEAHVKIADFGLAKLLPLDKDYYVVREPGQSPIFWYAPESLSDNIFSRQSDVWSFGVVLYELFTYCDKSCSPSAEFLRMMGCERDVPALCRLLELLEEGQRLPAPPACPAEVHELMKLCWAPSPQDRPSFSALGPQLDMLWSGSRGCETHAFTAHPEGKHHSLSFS
From the text: as §1, §2

Pyk2 = target: T10, Pyk2 (Homo sapiens, UniProt Q14289); assay: AlphaScreen kinase assay, Pyk2; details: read-out: IC50, activity toward kinase Pyk2
T10 construct: purchased Upstate Biotechnology

B-Raf = target: T11, B-Raf (Homo sapiens, UniProt P15056); assay: AlphaScreen kinase assay, B-Raf; details: read-out: IC50, activity toward kinase B-Raf
T11 construct: purchased Upstate Biotechnology

FGFR1 = target: T12, FGFR1 (Homo sapiens, UniProt P11362, C488A/C584S); assay: AlphaScreen kinase assay, FGFR1; details: read-out: IC50, activity toward kinase FGFR
T12 construct: P1351.pET N6 BI-PTP FGFR A458-E765-X C488A, C584S; made in house; host or cells: E. coli (PTP1B co-expressed)

c-Raf-1 = target: T13, c-Raf-1 (Homo sapiens, UniProt P04049); assay: AlphaScreen kinase assay, c-Raf-1; details: read-out: IC50, activity toward kinase c-Raf-1
T13 construct: purchased Upstate Biotechnology

Jnk3 = target: T14, Jnk3 (Homo sapiens, UniProt P53779); assay: AlphaScreen kinase assay, Jnk3; details: read-out: IC50, activity toward kinase Jnk3
T14 construct: purchased Upstate Biotechnology

Measured: IC50

T5 sequence (P35968 20-1356): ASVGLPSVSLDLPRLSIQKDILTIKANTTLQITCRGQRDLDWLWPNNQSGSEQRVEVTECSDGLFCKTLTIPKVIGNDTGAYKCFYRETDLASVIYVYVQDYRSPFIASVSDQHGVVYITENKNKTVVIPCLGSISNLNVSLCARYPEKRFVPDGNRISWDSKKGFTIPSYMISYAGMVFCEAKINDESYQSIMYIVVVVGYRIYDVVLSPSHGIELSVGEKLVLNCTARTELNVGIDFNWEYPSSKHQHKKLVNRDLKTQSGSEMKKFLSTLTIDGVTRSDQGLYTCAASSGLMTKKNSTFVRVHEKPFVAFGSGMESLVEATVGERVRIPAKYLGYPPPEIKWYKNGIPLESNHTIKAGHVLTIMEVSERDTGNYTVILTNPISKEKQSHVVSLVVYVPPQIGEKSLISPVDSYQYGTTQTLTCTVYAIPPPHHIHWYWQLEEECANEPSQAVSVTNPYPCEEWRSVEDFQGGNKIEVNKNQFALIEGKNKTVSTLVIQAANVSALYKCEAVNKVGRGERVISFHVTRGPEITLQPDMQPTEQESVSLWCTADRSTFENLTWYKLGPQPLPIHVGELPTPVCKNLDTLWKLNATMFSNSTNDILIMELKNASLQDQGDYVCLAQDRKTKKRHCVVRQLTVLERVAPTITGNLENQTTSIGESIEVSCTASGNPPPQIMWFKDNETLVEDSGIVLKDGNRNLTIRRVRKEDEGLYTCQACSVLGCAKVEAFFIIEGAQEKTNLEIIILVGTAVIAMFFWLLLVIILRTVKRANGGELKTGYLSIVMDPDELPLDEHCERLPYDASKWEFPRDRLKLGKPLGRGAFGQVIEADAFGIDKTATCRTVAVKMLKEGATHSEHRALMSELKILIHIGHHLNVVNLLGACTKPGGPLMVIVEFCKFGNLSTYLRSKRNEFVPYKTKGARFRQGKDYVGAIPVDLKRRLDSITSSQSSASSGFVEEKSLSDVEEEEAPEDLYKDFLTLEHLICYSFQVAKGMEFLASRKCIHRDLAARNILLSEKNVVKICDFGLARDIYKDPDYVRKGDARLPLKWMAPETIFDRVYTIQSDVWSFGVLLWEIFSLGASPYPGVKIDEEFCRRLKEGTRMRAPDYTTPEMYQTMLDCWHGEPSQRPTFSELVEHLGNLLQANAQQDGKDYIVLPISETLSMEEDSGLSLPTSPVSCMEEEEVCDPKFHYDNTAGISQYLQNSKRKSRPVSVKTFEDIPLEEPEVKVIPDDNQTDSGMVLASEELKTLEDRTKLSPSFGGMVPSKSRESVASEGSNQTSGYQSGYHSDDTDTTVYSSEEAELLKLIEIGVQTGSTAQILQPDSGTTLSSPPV
T7 sequence (P10721 with tags, fused parts or gaps): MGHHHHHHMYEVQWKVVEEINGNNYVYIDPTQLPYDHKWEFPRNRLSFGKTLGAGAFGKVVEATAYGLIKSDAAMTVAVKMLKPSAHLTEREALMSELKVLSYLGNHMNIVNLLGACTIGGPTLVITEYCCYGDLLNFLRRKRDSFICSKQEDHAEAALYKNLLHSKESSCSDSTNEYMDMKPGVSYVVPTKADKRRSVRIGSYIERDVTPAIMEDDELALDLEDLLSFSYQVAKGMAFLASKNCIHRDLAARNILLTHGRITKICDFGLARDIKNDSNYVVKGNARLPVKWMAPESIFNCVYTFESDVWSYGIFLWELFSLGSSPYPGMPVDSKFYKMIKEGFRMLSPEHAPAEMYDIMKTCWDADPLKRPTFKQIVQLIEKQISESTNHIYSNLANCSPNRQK
Sequence of IGF1R (P08069 31-1367): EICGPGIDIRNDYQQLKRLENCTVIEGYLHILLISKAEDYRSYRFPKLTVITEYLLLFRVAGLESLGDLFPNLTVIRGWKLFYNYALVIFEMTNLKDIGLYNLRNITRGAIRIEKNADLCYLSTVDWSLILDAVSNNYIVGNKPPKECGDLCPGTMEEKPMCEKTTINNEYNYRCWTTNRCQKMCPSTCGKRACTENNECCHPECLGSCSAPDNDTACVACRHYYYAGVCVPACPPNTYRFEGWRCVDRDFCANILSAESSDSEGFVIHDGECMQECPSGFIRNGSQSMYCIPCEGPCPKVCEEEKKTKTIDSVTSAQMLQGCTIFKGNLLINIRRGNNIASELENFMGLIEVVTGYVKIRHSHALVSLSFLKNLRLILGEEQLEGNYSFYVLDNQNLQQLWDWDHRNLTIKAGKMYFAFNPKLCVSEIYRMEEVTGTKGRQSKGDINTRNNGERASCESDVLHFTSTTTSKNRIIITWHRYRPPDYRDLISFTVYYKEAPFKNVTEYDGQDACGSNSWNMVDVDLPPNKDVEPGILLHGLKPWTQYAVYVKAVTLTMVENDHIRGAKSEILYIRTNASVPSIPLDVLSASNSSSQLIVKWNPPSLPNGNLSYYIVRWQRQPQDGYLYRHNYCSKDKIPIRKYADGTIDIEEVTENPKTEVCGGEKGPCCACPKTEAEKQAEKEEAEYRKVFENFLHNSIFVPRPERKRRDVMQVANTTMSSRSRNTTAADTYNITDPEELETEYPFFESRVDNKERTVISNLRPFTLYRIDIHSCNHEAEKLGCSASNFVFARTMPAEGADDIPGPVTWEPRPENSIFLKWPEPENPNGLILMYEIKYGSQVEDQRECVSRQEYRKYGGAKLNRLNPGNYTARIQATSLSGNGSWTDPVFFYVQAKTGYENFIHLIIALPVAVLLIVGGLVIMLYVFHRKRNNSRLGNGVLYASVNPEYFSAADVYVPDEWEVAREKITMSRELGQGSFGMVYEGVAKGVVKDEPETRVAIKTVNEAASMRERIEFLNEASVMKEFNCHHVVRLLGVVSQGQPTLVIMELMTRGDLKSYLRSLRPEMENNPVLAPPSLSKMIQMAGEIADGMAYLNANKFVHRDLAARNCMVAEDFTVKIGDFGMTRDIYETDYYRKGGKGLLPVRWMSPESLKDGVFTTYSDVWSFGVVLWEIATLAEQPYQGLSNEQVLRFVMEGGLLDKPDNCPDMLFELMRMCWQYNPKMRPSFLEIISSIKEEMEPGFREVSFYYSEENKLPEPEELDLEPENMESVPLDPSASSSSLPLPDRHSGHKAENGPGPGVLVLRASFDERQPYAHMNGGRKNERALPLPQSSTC
T4 sequence (P15056 with tags, fused parts or gaps V600E): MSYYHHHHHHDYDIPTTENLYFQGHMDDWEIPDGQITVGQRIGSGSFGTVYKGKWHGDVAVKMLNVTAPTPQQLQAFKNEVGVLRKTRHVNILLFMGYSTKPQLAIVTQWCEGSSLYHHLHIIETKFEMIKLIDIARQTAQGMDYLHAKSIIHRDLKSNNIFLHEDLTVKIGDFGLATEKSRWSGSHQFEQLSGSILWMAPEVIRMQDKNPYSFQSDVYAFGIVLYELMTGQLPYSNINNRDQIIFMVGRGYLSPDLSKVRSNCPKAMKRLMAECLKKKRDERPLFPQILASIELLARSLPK
Sequence of Plk1 (P53350 whole entry): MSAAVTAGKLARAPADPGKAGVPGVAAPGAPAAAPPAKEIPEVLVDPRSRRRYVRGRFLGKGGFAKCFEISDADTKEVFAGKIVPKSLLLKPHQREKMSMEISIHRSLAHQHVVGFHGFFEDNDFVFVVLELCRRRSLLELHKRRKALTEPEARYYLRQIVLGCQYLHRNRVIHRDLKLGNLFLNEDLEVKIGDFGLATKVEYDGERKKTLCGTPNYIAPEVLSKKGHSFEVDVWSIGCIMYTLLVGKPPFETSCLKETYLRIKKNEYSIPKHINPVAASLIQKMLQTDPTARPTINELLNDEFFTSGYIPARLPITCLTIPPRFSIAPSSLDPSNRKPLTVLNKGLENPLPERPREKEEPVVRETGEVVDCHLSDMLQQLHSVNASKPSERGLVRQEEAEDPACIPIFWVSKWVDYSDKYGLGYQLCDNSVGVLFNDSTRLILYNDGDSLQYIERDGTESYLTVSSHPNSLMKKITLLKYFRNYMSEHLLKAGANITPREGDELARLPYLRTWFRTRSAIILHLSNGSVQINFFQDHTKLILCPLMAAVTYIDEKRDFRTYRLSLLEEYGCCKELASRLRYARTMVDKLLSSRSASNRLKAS
T2 sequence (Q06187 whole entry): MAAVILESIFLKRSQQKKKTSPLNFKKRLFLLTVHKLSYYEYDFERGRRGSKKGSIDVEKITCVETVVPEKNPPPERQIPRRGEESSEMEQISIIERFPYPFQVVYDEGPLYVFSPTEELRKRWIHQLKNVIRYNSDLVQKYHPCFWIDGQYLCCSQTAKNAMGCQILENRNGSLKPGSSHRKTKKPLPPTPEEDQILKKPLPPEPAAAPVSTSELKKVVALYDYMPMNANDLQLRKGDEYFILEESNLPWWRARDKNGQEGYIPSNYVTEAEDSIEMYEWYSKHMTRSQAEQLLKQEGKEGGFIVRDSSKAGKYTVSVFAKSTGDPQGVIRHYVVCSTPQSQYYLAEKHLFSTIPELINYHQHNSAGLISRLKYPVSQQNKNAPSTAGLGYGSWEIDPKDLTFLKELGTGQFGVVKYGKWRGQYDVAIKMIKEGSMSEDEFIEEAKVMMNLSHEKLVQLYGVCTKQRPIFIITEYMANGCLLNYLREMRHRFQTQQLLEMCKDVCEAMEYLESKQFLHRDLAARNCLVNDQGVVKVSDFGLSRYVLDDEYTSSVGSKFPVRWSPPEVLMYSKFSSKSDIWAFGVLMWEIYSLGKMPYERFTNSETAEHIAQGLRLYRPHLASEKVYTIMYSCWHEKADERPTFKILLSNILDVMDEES
Sequence of Gsk3β (P49841 whole entry): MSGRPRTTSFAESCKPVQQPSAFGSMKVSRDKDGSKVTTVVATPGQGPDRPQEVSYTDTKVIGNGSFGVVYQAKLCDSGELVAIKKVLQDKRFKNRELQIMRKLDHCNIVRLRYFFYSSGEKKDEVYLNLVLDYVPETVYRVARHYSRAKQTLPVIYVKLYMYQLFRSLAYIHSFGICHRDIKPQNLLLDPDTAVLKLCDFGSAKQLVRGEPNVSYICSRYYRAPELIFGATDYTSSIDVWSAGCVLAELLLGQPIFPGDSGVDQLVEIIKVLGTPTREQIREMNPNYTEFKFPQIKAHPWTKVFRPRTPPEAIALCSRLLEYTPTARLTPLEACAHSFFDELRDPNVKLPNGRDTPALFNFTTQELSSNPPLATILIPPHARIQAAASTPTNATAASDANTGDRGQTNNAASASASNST

NC(=O)c1ccc(-c2ccnc3[nH]cc(C(=O)c4ccc(Cl)cc4)c23)cc1 [Compound P-0085]
≤ 10 µM: Plk1 | IKK beta | Btk | Ret | B-Raf V600E | Gsk3β | Kdr

c1cc(-c2noc(C3CC3)n2)c2cc[nH]c2n1 [Compound P-0128]
≤ 10 µM: Plk1 | IKK beta | Stk6 | Kdr

NC(=O)c1cccc(-c2ccnc3[nH]cc(C(=O)c4ccc(Cl)cc4)c23)c1 [Compound P-0135]
≤ 10 µM: Plk1 | IKK beta | Btk | Ret | B-Raf V600E | Gsk3β | Kdr

Nc1cccc(-c2cnc3[nH]ccc3c2)c1 [Compound P-0136]
≤ 10 µM: Stk6 | Kit | Kdr | IGF1R

OCc1cccc(-c2ccnc3[nH]cc(Sc4ccccc4)c23)c1 [Compound P-0146]
≤ 10 µM: Plk1 | Stk6 | Met | B-Raf V600E | Jak3

OCc1cccc(-c2cnc3[nH]ccc3c2)c1 [Compound P-0157]
≤ 10 µM: Stk6 | Kit | Kdr | IGF1R

CC(C)S(=O)(=O)Nc1ccc(F)c(C(O)c2c[nH]c3ncc(Br)cc23)c1F (stereo not shown) [Compound P-0178]
≤ 10 µM: Plk1 | Pyk2 | B-Raf | B-Raf V600E | Jak3 | FGFR1 | c-Raf-1

COc1ccc(-c2cnc3[nH]ccc3c2)cc1OC [Compound P-0212]
≤ 10 µM: Stk6 | Kdr | IGF1R

COc1cccc(-c2cnc3[nH]ccc3c2)c1 [Compound P-0213]
≤ 10 µM: Stk6 | Kit | Kdr | IGF1R | Jnk3

O=C(c1cc(O)ccc1F)c1c[nH]c2nccc(-c3ccccc3)c12 [Compound P-0863]
≤ 10 µM: Plk1 | B-Raf | Ret | B-Raf V600E | Jak3 | c-Raf-1
